Assay: susceptibility to oxidation in the presence of free oxygen
Type: physicochemical
Settings: inferred from redox potential
Source text: Another example would be an anthraquinone functionalized with sulfonate groups, such as 2,7 anthraquinone disulfonic acid. The 1,2 benzoquinone disulfonic acid has a higher reduction-oxidation potential than anthraquinone (approximately 0.8V versus 0.2V, as determined against a reversible hydrogen electrode).

Compound: O=C1c2ccc(S(=O)(=O)O)cc2C(=O)c2cc(S(=O)(=O)O)ccc21 [2,7 anthraquinone disulfonic acid]
- oxidation in the presence of oxygen: more susceptible to oxidation in the presence of free oxygen
